Reference: patent US11697648B2, “Fused pyrimidine pyridinone compounds as JAK inhibitors” (THERAVANCE BIOPHARMA R&D IP, LLC, priority 2019, dated 2023)

Columns and labels:
[1] = system: IL-2 stimulated STAT5 phosphorylation in Tall-1 human T cell line (JAK3); test: Cellular JAK3 potency assay: inhibition of IL-2 stimulated pSTAT5 in Tall-1 T cells; assay type: cell-based
How it was run: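 AlphaLISA SureFire Ultra measures STAT5 Tyr694/699 phosphorylation in lysed Tall-1 human T cells. Cells were exposed to compound for 1 h at 37 °C before a 30 min IL-2 challenge (300 ng/ml final). Values are pIC50 means with standard deviation from signal-versus-concentration curves.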

JAK1 = JAK1 (Homo sapiens (Human), UniProt P23458); test: Biochemical JAK1 kinase assay (LanthaScreen)
How it was run: (§1)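 GST-JAK + GFP-STAT1 peptide, HEPES pH 7.5/MgCl2/EGTA/Brij-35 buffer; cpd preincubation 1 h RT; ATP start, 1 h RT; stop with 10 mM EDTA + 2 nM Tb-anti-pSTAT1; TR-FRET 520/495. 4-parameter IC50 → pKi (Cheng-Prusoff).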

JAK3 = JAK3 (Homo sapiens (Human), UniProt P52333); test: Biochemical JAK3 kinase assay (LanthaScreen)
How it was run: as §1

JAK2 = JAK2 (Homo sapiens (Human), UniProt O60674); test: Biochemical JAK2 kinase assay (LanthaScreen)
How it was run: as §1

Tyk2 = Tyk2 (Homo sapiens (Human), UniProt P29597); test: Biochemical Tyk2 kinase assay (LanthaScreen)
How it was run: as §1

[2] = IL-2 stimulated pSTAT5, Tall-1 T cells
[3] = selectivity JAK3 over JAK1, difference of pKi
[4] = IL-2 stimulated pSTAT5 in Tall-1 T cells
[5] = selectivity, difference of pKi values

Chain of JAK1 (P23458 whole entry): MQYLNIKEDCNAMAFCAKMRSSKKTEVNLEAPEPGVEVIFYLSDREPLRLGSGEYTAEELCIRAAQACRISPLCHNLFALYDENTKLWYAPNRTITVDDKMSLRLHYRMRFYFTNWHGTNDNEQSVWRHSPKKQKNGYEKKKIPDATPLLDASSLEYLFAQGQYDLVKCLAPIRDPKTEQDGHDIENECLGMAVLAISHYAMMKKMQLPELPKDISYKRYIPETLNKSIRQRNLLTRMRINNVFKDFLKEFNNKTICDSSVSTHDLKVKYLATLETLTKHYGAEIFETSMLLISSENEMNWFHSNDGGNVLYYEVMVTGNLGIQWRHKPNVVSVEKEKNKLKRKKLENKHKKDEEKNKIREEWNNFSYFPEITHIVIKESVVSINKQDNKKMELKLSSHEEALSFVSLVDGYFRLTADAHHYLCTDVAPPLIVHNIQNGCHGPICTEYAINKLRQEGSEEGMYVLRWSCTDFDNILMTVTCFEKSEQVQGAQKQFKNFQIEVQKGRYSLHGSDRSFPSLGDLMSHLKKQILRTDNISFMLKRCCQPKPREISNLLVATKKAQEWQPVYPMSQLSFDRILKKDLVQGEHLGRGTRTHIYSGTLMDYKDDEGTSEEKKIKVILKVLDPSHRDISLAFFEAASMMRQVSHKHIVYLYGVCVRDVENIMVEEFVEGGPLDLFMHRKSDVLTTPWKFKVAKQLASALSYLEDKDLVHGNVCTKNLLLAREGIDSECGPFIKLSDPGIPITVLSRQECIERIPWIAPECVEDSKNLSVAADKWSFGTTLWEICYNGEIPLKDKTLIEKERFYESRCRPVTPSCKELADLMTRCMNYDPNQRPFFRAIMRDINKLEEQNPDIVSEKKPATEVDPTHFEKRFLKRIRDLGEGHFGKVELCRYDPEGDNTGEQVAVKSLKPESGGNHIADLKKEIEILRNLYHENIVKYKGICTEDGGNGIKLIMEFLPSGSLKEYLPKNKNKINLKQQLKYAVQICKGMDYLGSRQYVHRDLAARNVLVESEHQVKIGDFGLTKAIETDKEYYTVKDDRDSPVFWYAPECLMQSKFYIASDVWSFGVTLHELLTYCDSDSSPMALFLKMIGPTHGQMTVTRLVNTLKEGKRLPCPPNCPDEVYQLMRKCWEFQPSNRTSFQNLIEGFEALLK
Chain of Tyk2 (P29597 whole entry): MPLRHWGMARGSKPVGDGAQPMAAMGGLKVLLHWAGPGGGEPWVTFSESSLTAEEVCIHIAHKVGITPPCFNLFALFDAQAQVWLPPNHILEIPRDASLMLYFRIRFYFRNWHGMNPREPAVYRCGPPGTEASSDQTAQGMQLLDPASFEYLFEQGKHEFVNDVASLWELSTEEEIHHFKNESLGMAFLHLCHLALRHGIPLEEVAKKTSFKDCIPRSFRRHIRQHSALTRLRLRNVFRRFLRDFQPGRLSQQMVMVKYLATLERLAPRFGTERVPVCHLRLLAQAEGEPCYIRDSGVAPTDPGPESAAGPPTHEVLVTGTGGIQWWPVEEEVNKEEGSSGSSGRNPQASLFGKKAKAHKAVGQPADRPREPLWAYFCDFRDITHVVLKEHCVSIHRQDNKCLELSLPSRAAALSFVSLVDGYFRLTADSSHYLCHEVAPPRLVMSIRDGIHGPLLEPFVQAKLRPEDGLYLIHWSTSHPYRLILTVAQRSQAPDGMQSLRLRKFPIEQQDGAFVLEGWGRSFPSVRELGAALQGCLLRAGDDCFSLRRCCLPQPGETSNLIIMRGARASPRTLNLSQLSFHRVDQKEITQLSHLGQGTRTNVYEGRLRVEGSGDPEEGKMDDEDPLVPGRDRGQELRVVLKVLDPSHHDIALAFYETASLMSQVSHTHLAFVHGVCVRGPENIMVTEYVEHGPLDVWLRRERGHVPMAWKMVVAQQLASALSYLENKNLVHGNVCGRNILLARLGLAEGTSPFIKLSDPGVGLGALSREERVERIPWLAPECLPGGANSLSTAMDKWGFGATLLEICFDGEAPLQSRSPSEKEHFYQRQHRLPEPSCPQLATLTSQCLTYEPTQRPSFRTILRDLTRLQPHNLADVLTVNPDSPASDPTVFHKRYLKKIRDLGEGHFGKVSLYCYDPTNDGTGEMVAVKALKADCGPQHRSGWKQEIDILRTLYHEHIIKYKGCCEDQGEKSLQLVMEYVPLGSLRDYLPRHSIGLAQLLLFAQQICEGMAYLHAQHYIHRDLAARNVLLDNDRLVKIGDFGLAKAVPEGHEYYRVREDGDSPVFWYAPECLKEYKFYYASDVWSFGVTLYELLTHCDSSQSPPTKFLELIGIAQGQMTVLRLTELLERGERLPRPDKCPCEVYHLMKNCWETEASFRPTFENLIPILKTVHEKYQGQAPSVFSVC
Chain of JAK3 (P52333 whole entry): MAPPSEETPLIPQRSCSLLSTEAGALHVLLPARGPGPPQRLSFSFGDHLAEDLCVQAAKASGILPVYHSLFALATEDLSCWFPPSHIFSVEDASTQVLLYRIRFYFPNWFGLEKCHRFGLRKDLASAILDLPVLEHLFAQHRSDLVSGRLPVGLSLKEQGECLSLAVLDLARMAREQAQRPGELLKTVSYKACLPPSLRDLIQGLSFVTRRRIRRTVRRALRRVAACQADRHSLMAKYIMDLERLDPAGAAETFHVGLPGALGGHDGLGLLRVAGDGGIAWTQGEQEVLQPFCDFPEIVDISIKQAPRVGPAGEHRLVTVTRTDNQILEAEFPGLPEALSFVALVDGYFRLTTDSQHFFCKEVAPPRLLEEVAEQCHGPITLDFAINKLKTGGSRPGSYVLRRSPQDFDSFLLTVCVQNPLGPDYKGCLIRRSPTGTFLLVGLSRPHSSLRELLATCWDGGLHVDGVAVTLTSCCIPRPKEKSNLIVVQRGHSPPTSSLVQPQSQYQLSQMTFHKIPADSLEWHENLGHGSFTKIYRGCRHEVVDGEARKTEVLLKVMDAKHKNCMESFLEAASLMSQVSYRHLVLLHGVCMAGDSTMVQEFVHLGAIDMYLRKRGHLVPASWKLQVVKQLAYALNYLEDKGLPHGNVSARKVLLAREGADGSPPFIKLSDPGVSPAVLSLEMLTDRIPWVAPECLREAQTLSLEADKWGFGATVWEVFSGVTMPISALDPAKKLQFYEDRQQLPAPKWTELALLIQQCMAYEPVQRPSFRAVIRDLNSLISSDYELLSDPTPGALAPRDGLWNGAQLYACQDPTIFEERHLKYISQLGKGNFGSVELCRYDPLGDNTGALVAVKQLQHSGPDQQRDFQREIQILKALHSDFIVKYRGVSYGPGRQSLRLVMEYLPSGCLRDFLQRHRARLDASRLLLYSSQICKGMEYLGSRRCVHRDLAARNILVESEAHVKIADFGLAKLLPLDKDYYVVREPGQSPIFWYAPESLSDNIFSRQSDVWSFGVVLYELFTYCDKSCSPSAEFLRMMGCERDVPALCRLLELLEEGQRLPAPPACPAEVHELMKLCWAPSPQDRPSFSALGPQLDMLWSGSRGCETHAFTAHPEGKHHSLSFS
Chain of JAK2 (O60674 whole entry): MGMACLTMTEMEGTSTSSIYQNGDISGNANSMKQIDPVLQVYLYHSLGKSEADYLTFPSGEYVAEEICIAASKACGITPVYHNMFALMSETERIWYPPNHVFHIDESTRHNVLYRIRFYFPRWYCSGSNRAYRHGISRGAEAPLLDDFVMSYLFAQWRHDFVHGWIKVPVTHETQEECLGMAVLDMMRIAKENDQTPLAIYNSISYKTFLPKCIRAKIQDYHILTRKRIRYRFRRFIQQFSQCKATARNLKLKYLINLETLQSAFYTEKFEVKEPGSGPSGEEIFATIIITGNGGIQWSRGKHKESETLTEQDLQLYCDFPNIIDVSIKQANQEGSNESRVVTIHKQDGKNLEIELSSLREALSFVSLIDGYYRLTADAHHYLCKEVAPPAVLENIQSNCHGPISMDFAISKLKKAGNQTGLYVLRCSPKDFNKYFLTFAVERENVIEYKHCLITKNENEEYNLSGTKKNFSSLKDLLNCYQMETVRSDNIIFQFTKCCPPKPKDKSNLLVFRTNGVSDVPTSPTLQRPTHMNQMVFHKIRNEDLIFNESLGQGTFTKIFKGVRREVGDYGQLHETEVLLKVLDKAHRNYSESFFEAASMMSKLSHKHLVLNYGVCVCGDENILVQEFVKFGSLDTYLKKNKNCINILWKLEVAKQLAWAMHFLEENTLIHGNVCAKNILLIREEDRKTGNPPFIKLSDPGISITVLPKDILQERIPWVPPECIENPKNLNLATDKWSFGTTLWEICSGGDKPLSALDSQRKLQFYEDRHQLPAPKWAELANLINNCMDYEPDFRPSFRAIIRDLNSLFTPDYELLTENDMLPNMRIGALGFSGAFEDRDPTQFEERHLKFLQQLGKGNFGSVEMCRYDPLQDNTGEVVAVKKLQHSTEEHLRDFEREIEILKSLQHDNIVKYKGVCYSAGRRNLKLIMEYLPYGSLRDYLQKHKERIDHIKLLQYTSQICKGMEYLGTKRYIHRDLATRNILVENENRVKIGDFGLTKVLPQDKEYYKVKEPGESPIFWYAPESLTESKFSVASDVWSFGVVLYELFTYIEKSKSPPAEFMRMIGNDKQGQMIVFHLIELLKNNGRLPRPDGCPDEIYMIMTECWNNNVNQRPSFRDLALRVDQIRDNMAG

Structure (SMILES)	Tall-1 (pIC50) [1, 2]	JAK 1 (pKi) (JAK1)	JAK 3 (pKi) (JAK3)	JAK3 (pKi)-JAK1 (pKi) (JAK3; [3])	JAK 2 (pKi) (JAK2)	Tyk 2 (pKi) (Tyk2)	Tall-1 (pIC50) [1, 4]	JAK3 (pKi)-JAK1 (pKi) (JAK3; [5])
C=CC(=O)N1CCN(CCn2c(=O)ccc3cnc(Nc4cnn(-c5ccccc5)c4)nc32)[C@@H](C)C1 [Example 235]	B (B represents a pC50 value between 6.7 (included) and 7.5 (IC50 between 200 nM and 32 nM))	E (E represents a pKi value of 7 or below (Ki of 100 nM or above))	B (B represents pKi value between 9 and 10 (Ki between 1 nM and 0.1 nM))	A (A represents a value of 3 or above)	E (E represents a pKi value of 7 or below (Ki of 100 nM or above))	E (E represents a pKi value of 7 or below (Ki of 100 nM or above))		
C=CC(=O)N1CC(CCn2c(=O)ccc3cnc(Nc4ccc(N5CCN(C)CC5)c(F)c4)nc32)C1 [Example 48]	B (B represents a pC50 value between 6.7 (included) and 7.5 (IC50 between 200 nM and 32 nM))	E (E represents a pKi value of 7 or below (Ki of 100 nM or above))	B (B represents pKi value between 9 and 10 (Ki between 1 nM and 0.1 nM))	A (A represents a value of 3 or above)	E (E represents a pKi value of 7 or below (Ki of 100 nM or above))	E (E represents a pKi value of 7 or below (Ki of 100 nM or above))		
C=CC(=O)N1CC(CCn2c(=O)ccc3cnc(Nc4cnn(CCOCC)c4)nc32)C1 [Example 56]	C (C represents a pIC50 value between 6 and 6.7 (IC50 between 1 μM and 200 nM))	E (E represents a pKi value of 7 or below (Ki of 100 nM or above))	B (B represents pKi value between 9 and 10 (Ki between 1 nM and 0.1 nM))	A (A represents a value of 3 or above)	E (E represents a pKi value of 7 or below (Ki of 100 nM or above))	E (E represents a pKi value of 7 or below (Ki of 100 nM or above))		
C=CC(=O)N1CC(C(C)(C)Cn2c(=O)ccc3cnc(Nc4ccc(N5CCN(C(C)=O)CC5)cc4)nc32)C1 [Example 184]	B (B represents a pC50 value between 6.7 (included) and 7.5 (IC50 between 200 nM and 32 nM))	E (E represents a pKi value of 7 or below (Ki of 100 nM or above))	A (A represents a pKi value≥10 (Ki≤0.1 nM))	A (A represents a value of 3 or above)	E (E represents a pKi value of 7 or below (Ki of 100 nM or above))	E (E represents a pKi value of 7 or below (Ki of 100 nM or above))		
C=CC(=O)N1CCN(CCn2c(=O)ccc3cnc(Nc4cnn(CC)c4)nc32)[C@@H](C)C1 [Example 243]		E (E represents a pKi value of 7 or below (Ki of 100 nM or above))	B (B represents pKi value between 9 and 10 (Ki between 1 nM and 0.1 nM))		E (E represents a pKi value of 7 or below (Ki of 100 nM or above))	E (E represents a pKi value of 7 or below (Ki of 100 nM or above))	B (B represents a pC50 value between 6.7 (included) and 7.5 (IC50 between 200 nM and 32 nM))	A (A represents a value of 3 or above)
C=CC(=O)N1CCN(CCn2c(=O)ccc3cnc(Nc4ccc(N5CCN(C(=S)N(C)C)CC5)cc4)nc32)CC1 [Example 214]	B (B represents a pC50 value between 6.7 (included) and 7.5 (IC50 between 200 nM and 32 nM))	E (E represents a pKi value of 7 or below (Ki of 100 nM or above))	B (B represents pKi value between 9 and 10 (Ki between 1 nM and 0.1 nM))	A (A represents a value of 3 or above)	E (E represents a pKi value of 7 or below (Ki of 100 nM or above))	E (E represents a pKi value of 7 or below (Ki of 100 nM or above))		
C=CC(=O)N1CCN(CCn2c(=O)ccc3cnc(Nc4ccc(N5CCN(C(=O)CC(C)C)CC5)cc4)nc32)CC1 [Example 212]	B (B represents a pC50 value between 6.7 (included) and 7.5 (IC50 between 200 nM and 32 nM))	E (E represents a pKi value of 7 or below (Ki of 100 nM or above))	A (A represents a pKi value≥10 (Ki≤0.1 nM))	A (A represents a value of 3 or above)	E (E represents a pKi value of 7 or below (Ki of 100 nM or above))	E (E represents a pKi value of 7 or below (Ki of 100 nM or above))		
C=CC(=O)N1CCN(CCn2c(=O)ccc3cnc(Nc4cnn(C5CCOCC5)c4)nc32)[C@@H](C)C1 [Example 250]		E (E represents a pKi value of 7 or below (Ki of 100 nM or above))	B (B represents pKi value between 9 and 10 (Ki between 1 nM and 0.1 nM))		E (E represents a pKi value of 7 or below (Ki of 100 nM or above))	E (E represents a pKi value of 7 or below (Ki of 100 nM or above))	B (B represents a pC50 value between 6.7 (included) and 7.5 (IC50 between 200 nM and 32 nM))	A (A represents a value of 3 or above)
C=CC(=O)N1CCN(CCn2c(=O)ccc3cnc(Nc4cnn(CCN5CCOCC5)c4)nc32)[C@@H](CC)C1 [Example 244]		E (E represents a pKi value of 7 or below (Ki of 100 nM or above))	B (B represents pKi value between 9 and 10 (Ki between 1 nM and 0.1 nM))		E (E represents a pKi value of 7 or below (Ki of 100 nM or above))	E (E represents a pKi value of 7 or below (Ki of 100 nM or above))	B (B represents a pC50 value between 6.7 (included) and 7.5 (IC50 between 200 nM and 32 nM))	A (A represents a value of 3 or above)
C=CC(=O)N1CCN(CCn2c(=O)ccc3cnc(Nc4ccc(N5CCN(CC)CC5)cc4)nc32)CC1 [Example 204]	A (A represents a pIC50 value≥7.5 (IC50≤32 nM))	E (E represents a pKi value of 7 or below (Ki of 100 nM or above))	A (A represents a pKi value≥10 (Ki≤0.1 nM))	A (A represents a value of 3 or above)	E (E represents a pKi value of 7 or below (Ki of 100 nM or above))	E (E represents a pKi value of 7 or below (Ki of 100 nM or above))		
C=CC(=O)N1CC(CCn2c(=O)ccc3cnc(Nc4ccc(-n5ccnc5)cc4)nc32)C1 [Example 73]	C (C represents a pIC50 value between 6 and 6.7 (IC50 between 1 μM and 200 nM))	E (E represents a pKi value of 7 or below (Ki of 100 nM or above))	C (C represents a pKi value between 8 and 9 (Ki between 10 nM and 1 nM))	B (B represents a value of 2.5 to 3)	E (E represents a pKi value of 7 or below (Ki of 100 nM or above))	E (E represents a pKi value of 7 or below (Ki of 100 nM or above))		
C=CC(=O)N1CC(CCn2c(=O)ccc3cnc(Nc4ccc(N5CCN(C(F)(F)F)CC5)cc4)nc32)C1 [Example 177]	B (B represents a pC50 value between 6.7 (included) and 7.5 (IC50 between 200 nM and 32 nM))	E (E represents a pKi value of 7 or below (Ki of 100 nM or above))	B (B represents pKi value between 9 and 10 (Ki between 1 nM and 0.1 nM))	A (A represents a value of 3 or above)	E (E represents a pKi value of 7 or below (Ki of 100 nM or above))	E (E represents a pKi value of 7 or below (Ki of 100 nM or above))		
C=CC(=O)N1CC(CCn2c(=O)ccc3cnc(Nc4ccc(N5CCN(C(C)=O)C[C@@H]5C)cc4)nc32)C1 [Example 168]	A (A represents a pIC50 value≥7.5 (IC50≤32 nM))	E (E represents a pKi value of 7 or below (Ki of 100 nM or above))	A (A represents a pKi value≥10 (Ki≤0.1 nM))	A (A represents a value of 3 or above)	E (E represents a pKi value of 7 or below (Ki of 100 nM or above))	E (E represents a pKi value of 7 or below (Ki of 100 nM or above))		
C=CC(=O)N1CC(CCn2c(=O)ccc3cnc(Nc4cccc(CN5CCN(S(=O)(=O)C6COC6)CC5)c4)nc32)C1 [Example 126]	B (B represents a pC50 value between 6.7 (included) and 7.5 (IC50 between 200 nM and 32 nM))	E (E represents a pKi value of 7 or below (Ki of 100 nM or above))	A (A represents a pKi value≥10 (Ki≤0.1 nM))	A (A represents a value of 3 or above)	E (E represents a pKi value of 7 or below (Ki of 100 nM or above))	E (E represents a pKi value of 7 or below (Ki of 100 nM or above))		
C=CC(=O)N1CC(CCn2c(=O)ccc3cnc(Nc4ccc(N5CCOCC5)c(F)c4)nc32)C1 [Example 23]	B (B represents a pC50 value between 6.7 (included) and 7.5 (IC50 between 200 nM and 32 nM))	E (E represents a pKi value of 7 or below (Ki of 100 nM or above))	B (B represents pKi value between 9 and 10 (Ki between 1 nM and 0.1 nM))	A (A represents a value of 3 or above)	E (E represents a pKi value of 7 or below (Ki of 100 nM or above))	E (E represents a pKi value of 7 or below (Ki of 100 nM or above))		
